# Laboratory results from ChEMBL document CHEMBL5728173, “N4-hydroxycytidine and derivatives and anti-viral uses related thereto” (2020).
# Assay: antiviral activity: Several derivatives of EIDD-01931 have shown antiviral activity in screening against various viruses. Activity data is shown in the tables below. Norovirus SARS Coronavirus GT1 Orbani HG23 Vero 76.
row,SMILES,EC50
1,CC1(O)[C@@H](O)[C@@H](CO)O[C@H]1n1ccc(NO)nc1=O (stereo partly drawn),> 366 µM
2,O=c1nc(NO)ccn1[C@@H]1O[C@H](CO)[C@H](O)C1O (stereo partly drawn),> 3860 µM

# Assay: CPE Assay: Primary cytopathic effect (CPE) reduction assay. Four-concentration CPE inhibition assays are performed. Confluent or near-confluent cell culture monolayers in 96-well disposable microplates are prepared.
row,SMILES,EC50
1,C#CC1(O)[C@@H](O)[C@@H](COP(=O)(OCOC(=O)C(C)(C)C)OCOC(=O)C(C)(C)C)O[C@H]1n1ccc(=O)[nH]c1=O (stereo partly drawn),64.4 µM
2,CCCCCCCNC(=O)OC[C@H]1O[C@@H](n2ccc(NO)nc2=O)C(O)[C@H]1O (stereo partly drawn),> 78 µM
3,CCCCCCCCCCCCCCCCOCCCOP(=O)(O)OC[C@H]1O[C@@H](n2ccc(NO)nc2=O)C(O)[C@H]1O (stereo partly drawn),34.5 µM
4,CC(C)(C)C(=O)OCOP(=O)(OCOC(=O)C(C)(C)C)OC[C@H]1O[C@@H](n2ccc(=O)[nH]c2=O)C(C)(F)[C@H]1O (stereo partly drawn),58 µM
5,O=c1nc(NO)ccn1[C@@H]1O[C@H](CO)[C@H](O)C1F (stereo partly drawn),> 75 µM
6,CCCCCCCCC(=O)OC[C@H]1O[C@@H](n2ccc(NO)nc2=O)C(O)[C@H]1O (stereo partly drawn),0.3 µM
7,O=c1nc(NO)ccn1[C@@H]1O[C@H](COP2(=O)OCc3ccccc3O2)[C@H](O)C1O (stereo partly drawn),10.8 µM
8,NNc1ccn([C@@H]2O[C@H](CO)[C@H](O)C2O)c(=O)n1 (stereo partly drawn),> 78 µM
9,CC1(F)[C@@H](O)[C@@H](CO)O[C@H]1n1ccc(NO)nc1=O (stereo partly drawn),> 75 µM
10,CCCCCCCNC(=O)ONc1ccn([C@@H]2O[C@H](CO)[C@H](O)C2O)c(=O)n1 (stereo partly drawn),29 µM
11,O=c1ccn([C@@H]2O[C@H](CO)[C@H](O)C23CC3(F)F)c(=O)[nH]1 (stereo partly drawn),> 78 µM
12,CNC(=O)ONc1ccn([C@@H]2O[C@H](CO)[C@H](O)C2O)c(=O)n1 (stereo partly drawn),32 µM
13,CC(C)(C)C(=O)OCOP(=O)(OCOC(=O)C(C)(C)C)OC[C@@]1(N=[N+]=[N-])O[C@@H](n2ccc(=O)[nH]c2=O)C(O)[C@H]1O (stereo partly drawn),56 µM
14,CC1(O)[C@H]2OP(=O)(Oc3ccccc3)OC[C@H]2O[C@H]1n1ccc(=O)[nH]c1=O (stereo partly drawn),> 78 µM
15,CC1(O)[C@@H](O)[C@@H](CO)O[C@H]1n1ccc(NO)nc1=O (stereo partly drawn),72 µM
16,CCCCCCCNC(=O)ONc1ccn([C@H]2O[C@H](CO)[C@H](O)C2O)c(=O)n1 (stereo partly drawn),38 µM
17,CN(C)C(=O)ONc1ccn([C@@H]2O[C@H](CO)[C@H](O)C2O)c(=O)n1 (stereo partly drawn),25 µM
18,CCCCCCCCCCCCCCCCNC(=O)ONc1ccn([C@@H]2O[C@H](CO)[C@H](O)C2O)c(=O)n1 (stereo partly drawn),> 78 µM
19,CCOP(=O)(OCC)OC[C@H]1O[C@@H](n2ccc(NO)nc2=O)C(O)[C@H]1O (stereo partly drawn),> 78 µM
20,CONc1ccn([C@@H]2O[C@H](CO)[C@H](O)C2(C)O)c(=O)n1 (stereo partly drawn),> 75 µM
21,O=c1nc(NO)cc[nH]1 [N4-hydroxycytosine],> 78 µM
